From patent publication US10577399B2, “Modified lantibiotics and methods of making and using the modified lantibiotics” (priority 2016, dated 2020)
≈ marks a conversion by molar mass, not a printed value. Read-outs that look alike come from different tables or passages of the source. No end group written: not given here.

What was measured:
M. luteus ATCC 10240 = type: cell-based, Micrococcus luteus; settings: for MIC (μg/mL) M. luteus: Table 7, chemically modified analogs; for M. luteus ATCC 10240 MIC / M. luteus ATCC 10240 MLC: Table 11
Description: (§1) Minimum Inhibitory Concentrations (MICs) were determined according to previously published protocol^31. A stock solution of the antibiotics tested was first suspended in 50% acetonitrile (ACN) at a concentration 640 μg/mL. This stock was subsequently diluted 2-fold until a final concentration 0.156 μg/mL was reached. Subsequently, 10 μl of each dilution was placed into a well on a 96 well microtiter plate. M. luteus ATCC 10240, S. pneumoniae, and B. subtilis PY79 were grown overnight in THyex at 37° C. Cultures were diluted in the morning to 0.1 OD600 and allowed to grow to 0.6 OD600. This culture was diluted a 100-fold in fresh THyex media and then 400 μl of this culture was added to 10 mL of fresh THyex. The suspension contains approximately 10^5 colony forming units (CFUs). The bacterial suspension (190 μL) was added to each well containing 10 μL of antibiotic suspension or solvent blank. […] Following the 15 minute pretreatment, 190 μL was added to each well as described above. The MIC is described as the […] concentration of antibiotic that prevented visible growth after 24 hours.
FIG. 11 illustrates the bioactivity of various core peptide mutants of mutacin 1130. The activity of the core mutant peptides is expressed as a ratio of the area of the zone of inhibition of each mutant strain to the area of the zone of inhibition of the wild-type strain against indicator strain of Micrococcus luteus. […] The deferred antagonism assay is an overlay assay of the indicator strain onto plates containing heat killed colonies of the mutacin producer strain after growing overnight. Core peptide mutants having inhibitory activity were isolated and the purified products were further evaluated by a standard minimum inhibitory concentration (MIC) assay.

S. pneumoniae ATCC 27336 = type: cell-based, Streptococcus pneumoniae; settings: for MIC (μg/mL) S. pneumoniae: Table 7, S. pneumoniae ATCC 27336; for S. pneumonia ATCC 27336 MIC / S. pneumonia ATCC 27336 MLC: Table 11
Description: as §1, with “hours. […]” for “hours.”

S. aureus ATCC 25923 = test: MIC/MLC assay against S. aureus; type: cell-based, Staphylococcus aureus; settings: Table 11
C. accolens ATCC 49725 = test: MIC/MLC assay against C. accolens ATCC 49725; type: cell-based; settings: THyex broth with 1% Tween 80
C. accolens KPL 1818 = test: MIC/MLC assay against C. accolens KPL 1818; type: cell-based; settings: THyex broth with 1% Tween 80
[1] = listed as diaminoheptane conjugate

M. luteus ATCC 10240 MIC (M. luteus ATCC 10240) [micrograms per milliliter]	S. pneumonia ATCC 27336 MIC (S. pneumoniae ATCC 27336) [micrograms per milliliter]	S. aureus ATCC 25923 MIC (S. aureus ATCC 25923) [micrograms per milliliter]	C. accolens ATCC 49725 MIC (C. accolens ATCC 49725) [micrograms per milliliter]	C. accolens KPL 1818 MIC (C. accolens KPL 1818) [micrograms per milliliter]	Molecule	MIC (μg/mL) M. luteus (M. luteus ATCC 10240; listed as chlorophenylalanine conjugate) [µg/mL]	MIC (μg/mL) M. luteus (M. luteus ATCC 10240) [µg/mL]	MIC (μg/mL) S. pneumoniae (S. pneumoniae ATCC 27336) [µg/mL]	MIC (μg/mL) S. pneumoniae (S. pneumoniae ATCC 27336; listed as di-chlorophenylalanine conjugate) [µg/mL]	M. luteus ATCC 10240 MLC (M. luteus ATCC 10240) [micrograms per milliliter]	S. pneumonia ATCC 27336 MLC (S. pneumoniae ATCC 27336) [micrograms per milliliter]	S. aureus ATCC 25923 MLC (S. aureus ATCC 25923) [micrograms per milliliter]	C. accolens ATCC 49725 MLC (C. accolens ATCC 49725) [micrograms per milliliter]	C. accolens KPL 1818 MLC (C. accolens KPL 1818) [micrograms per milliliter]	MIC (μg/mL) M. luteus (M. luteus ATCC 10240; [1]) [µg/mL]	MIC (μg/mL) S. pneumoniae (S. pneumoniae ATCC 27336; [1]) [µg/mL]
4	2	>32	>4	>4	S5T: core peptide mutant of mutacin 1140, Serine 5 replaced by Threonine (FKSWTLCTPGCARTGSFNSYCC; UniProt O68586 42-63, looked up, variant S5T) [Mutant S5T]	–	–	–	–	4	2	>32	>4	>4	–	–
0.5	2	8	1	0.5	S5G:T14G: core peptide mutant of mutacin 1140, positions 5, 14 replaced by Glycine and Glycine (FKSWGLCTPGCARGGSFNSYCC; ends and bridges not checked; cysteine pairing not given here; UniProt O68586 42-63, looked up, variant S5G T14G)	–	–	–	–	0.5	2	16	1	1	–	–
2	8	>32	>4	>4	S5G:R13A:T14A: core peptide mutant of mutacin 1140, positions 5, 13 and 14 replaced by Glycine, Alanine and Alanine (FKSWGLCTPGCAAAGSFNSYCC; ends and bridges not checked; cysteine pairing not given here; UniProt O68586 42-63, looked up, variant S5G R13A T14A)	–	–	–	–	16	>16	>32	>4	>4	–	–
0.25	2	32	0.5	0.5	R13A:T14A: core peptide mutant of mutacin 1140, positions 13, 14 replaced by Alanine and Alanine (FKSWSLCTPGCAAAGSFNSYCC; UniProt O68586 42-63, looked up, variant R13A T14A)	–	–	–	–	0.5	2	32	0.5	0.5	–	–

More lines, now with the values behind:

Molecule	M. luteus ATCC 10240 MIC (M. luteus ATCC 10240) [micrograms per milliliter]	S. pneumonia ATCC 27336 MIC (S. pneumoniae ATCC 27336) [micrograms per milliliter]	S. aureus ATCC 25923 MIC (S. aureus ATCC 25923) [micrograms per milliliter]	C. accolens ATCC 49725 MIC (C. accolens ATCC 49725) [micrograms per milliliter]	C. accolens KPL 1818 MIC (C. accolens KPL 1818) [micrograms per milliliter]	MIC (μg/mL) M. luteus (M. luteus ATCC 10240; listed as chlorophenylalanine conjugate) [µg/mL]	MIC (μg/mL) M. luteus (M. luteus ATCC 10240) [µg/mL]	MIC (μg/mL) S. pneumoniae (S. pneumoniae ATCC 27336) [µg/mL]	MIC (μg/mL) S. pneumoniae (S. pneumoniae ATCC 27336; listed as di-chlorophenylalanine conjugate) [µg/mL]	M. luteus ATCC 10240 MLC (M. luteus ATCC 10240) [micrograms per milliliter]	S. pneumonia ATCC 27336 MLC (S. pneumoniae ATCC 27336) [micrograms per milliliter]	S. aureus ATCC 25923 MLC (S. aureus ATCC 25923) [micrograms per milliliter]	C. accolens ATCC 49725 MLC (C. accolens ATCC 49725) [micrograms per milliliter]	C. accolens KPL 1818 MLC (C. accolens KPL 1818) [micrograms per milliliter]	MIC (μg/mL) M. luteus (M. luteus ATCC 10240; [1]) [µg/mL]	MIC (μg/mL) S. pneumoniae (S. pneumoniae ATCC 27336; [1]) [µg/mL]
C=C1NC(=O)[C@H](Cc2c[nH]c3ccccc23)NC(=O)[C@H](NC(=O)[C@H](CCCCN)NC(=O)[C@@H](N)Cc2ccccc2)CSC[C@@H](C(=O)N[C@H]2C(=O)N3CCC[C@H]3C(=O)NCC(=O)N[C@H](C(=O)N[C@@H](C)C(=O)N[C@@H](CCCNC(=N)N)C(=O)N/C(=C\C)C(=O)NCC(=O)N[C@@H]3CSC[C@@H]4NC(=O)[C@H](Cc5ccc(O)cc5)NC(=O)[C@@H](CSC[C@@H](C(=O)NCc5ccc(Cl)cc5)NC4=O)NC(=O)[C@H](CC(N)=O)NC(=O)[C@H](Cc4ccccc4)NC3=O)CS[C@H]2C)NC(=O)[C@H](CC(C)C)NC1=O [Mutacin 1140 - chlorophenylalanine]	–	–	–	–	–	1.0 (≈ 0.411 µM)	–	–	–	–	–	–	–	–	–	–
C=C1NC(=O)[C@H](Cc2c[nH]c3ccccc23)NC(=O)[C@H](NC(=O)[C@H](CCCCN)NC(=O)[C@@H](N)Cc2ccccc2)CSC[C@@H](C(=O)N[C@H]2C(=O)N3CCC[C@H]3C(=O)NCC(=O)N[C@H](C(=O)N[C@@H](C)C(=O)N[C@@H](CCCNC(=N)N)C(=O)N/C(=C\C)C(=O)NCC(=O)N[C@@H]3CSC[C@@H]4NC(=O)[C@H](Cc5ccc(O)cc5)NC(=O)[C@@H](CSC[C@@H](C(=O)NC)NC4=O)NC(=O)[C@H](CC(N)=O)NC(=O)[C@H](Cc4ccccc4)NC3=O)CS[C@H]2C)NC(=O)[C@H](CC(C)C)NC1=O [Mutacin 1140 - methylamine]	–	–	–	–	–	–	0.125 (≈ 0.0538 µM)	0.5 (≈ 0.215 µM)	–	–	–	–	–	–	–	–
C=C1NC(=O)[C@H](Cc2c[nH]c3ccccc23)NC(=O)[C@H](NC(=O)[C@H](CCCCN)NC(=O)[C@@H](N)Cc2ccccc2)CSC[C@@H](C(=O)N[C@H]2C(=O)N3CCC[C@H]3C(=O)NCC(=O)N[C@H](C(=O)N[C@@H](C)C(=O)N[C@@H](CCCNC(=N)N)C(=O)N/C(=C\C)C(=O)NCC(=O)N[C@@H]3CSC[C@@H]4NC(=O)[C@H](Cc5ccc(O)cc5)NC(=O)[C@@H](CSC[C@@H](C(=O)NCc5ccc(Cl)c(Cl)c5)NC4=O)NC(=O)[C@H](CC(N)=O)NC(=O)[C@H](Cc4ccccc4)NC3=O)CS[C@H]2C)NC(=O)[C@H](CC(C)C)NC1=O [Mutacin 1140 - di-chlorophenylalanine]	–	–	–	–	–	–	–	–	8.0 (≈ 3.24 µM)	–	–	–	–	–	–	–
C=C1NC(=O)[C@H](Cc2c[nH]c3ccccc23)NC(=O)[C@H](NC(=O)[C@H](CCCCN)NC(=O)[C@@H](N)Cc2ccccc2)CSC[C@@H](C(=O)N[C@H]2C(=O)N3CCC[C@H]3C(=O)NCC(=O)N[C@H](C(=O)N[C@@H](C)C(=O)N[C@@H](CCCNC(=N)N)C(=O)N/C(=C\C)C(=O)NCC(=O)N[C@@H]3CSC[C@@H]4NC(=O)[C@H](Cc5ccc(O)cc5)NC(=O)[C@@H](CSC[C@@H](C(=O)NCCCCCCCN)NC4=O)NC(=O)[C@H](CC(N)=O)NC(=O)[C@H](Cc4ccccc4)NC3=O)CS[C@H]2C)NC(=O)[C@H](CC(C)C)NC1=O [Mutacin 1140 - diaminoheptane]	–	–	–	–	–	–	0.25 (≈ 0.103 µM)	–	–	–	–	–	–	–	0.5 (≈ 0.206 µM)	2.0 (≈ 0.825 µM)
S5A:A12S un-dehydrated: core peptide mutant of mutacin 1140, positions 5, 12 replaced by Alanine and Serine; un-dehydrated form (FKSWALCTPGCSRTGSFNSYCC; ends and bridges not checked; cysteine pairing not given here; UniProt O68586 42-63, looked up, variant S5A A12S)	0.125	0.125	16	–	–	–	–	–	–	0.25	0.125	16	–	–	–	–
